{"source": "patent EP0307553B1", "about": "“Modified splenopentines, their process of preparation and their use” (priority 1987, dated 1989)", "key": {"[1]": {"tested_on": "Monocyten bzw. Lymphocytensubpopulationen", "experiment": "Cytofluorimetric quantification of monocytes and lymphocyte subpopulations in a patient with secondary immunodeficiency", "type": "in vivo, Patientin", "conditions": "for DR^+-Monocyten (Gpt/l): before treatment 0,02, normal 0 -0,6; for CD 4 (Gpt/l): before treatment 0,03, normal 0,6 - 1,3; for CD 3 (Gpt/l): before treatment 0,04, normal 1,0 - 2,0; for Lymphocyten (Gpt/l): before treatment 0,28, normal 1,5 - 3,5; for CD 4/ CD 8: before treatment 0,58, normal 1,5 - 3,0; for DR^+-Monocyten (%): before treatment 16, normal 65 - 90"}, "Coxsackievirus B4": {"tested_on": "Coxsackievirus B4", "experiment": "Histologically confirmed pancreatitis after Coxsackievirus infection", "type": "in vivo, Balb/c-Mäuse"}, "männlichen Balb/c-Mäusen": {"tested_on": "männlichen Balb/c-Mäusen", "experiment": "Chronic alcohol intoxication: parameters of the immune system", "type": "in vivo, Mäuse", "conditions": "5x daily before test, n=40"}, "[2]": {"experiment": "Histopathological lung changes after infection, mouse", "type": "in vivo, Maus (Balb/c)", "conditions": "Maus (TCID = 10^3,5)"}, "[3]": {"tested_on": "Knochenmark-stammzellen von C57 Bl-Mäusen", "experiment": "Colony formation test: mouse bone marrow stem cells co-cultured with human leukocytes in agar", "type": "cell-based", "conditions": "without DAc-SP5 = 100 %"}, "NMRI-Mäuse [4]": {"tested_on": "NMRI-Mäuse", "experiment": "Chemically induced suppression of the humoral immune response (cyclophosphamide, dexamethasone; Fig. 2)", "type": "in vivo", "from_the_text": "(§1) Der Einfluß von DAc-SP5 und immunsuppressiv wirkenden Verbindungen auf die Antigen-spezifische IgM-Antwort bei Mäusen wurde untersucht. Die erhaltenen Ergebnisse sind in den Fig.1 und 2 dargestellt.\nDAc-SP5 rekonstituiert bereits durch wenige aufeinanderfolgende Applikationen die chemisch induzierts Suppression der humoralen Immunantwort."}, "[5]": {"tested_on": "HIV-infizierten Patienten", "experiment": "Therapy of HIV-infected patients"}, "NMRI-Mäuse [6]": {"tested_on": "NMRI-Mäuse", "experiment": "Antigen-specific IgM response against sheep erythrocytes in normal mice (Jerne plaque test, Fig. 1)", "type": "in vivo", "conditions": "3x at 24 h intervals, 0,5 mg/kg, independent of route of application", "from_the_text": "as §1\nTiere: männliche NMRI-Mäuse (Koloniezucht) im Alter von 2-2,5 Monaten. Methodik des Jerne-Plaquetests entsprechend R. Eckert und G. Pasternak, Acta biol. med. germ. 31: 127-137 (1973), n= 16 (NaCl-Kontrolle), n= 8 (DAc-SP5-Versuche)."}, "[7]": {"experiment": "Histopathological lung changes after infection, hamster", "type": "in vivo, syrischen Hamster", "conditions": "Hamster (TCID₅₀ = 2 x 10^3,5)"}, "Milzzellen/Ratte": {"tested_on": "Milzzellen/Ratte", "experiment": "Radioligand binding study, rat spleen cells"}, "[8]": {"conditions": "15 % Ethanol over 1,5 months + 0,1 mg DAc-SP5 i.p."}, "[9]": {"conditions": "no Ethanol, 0,1 mg DAc-SP5 i.p."}, "[10]": {"conditions": "therapy before infection: 0,5 mg/kg s.c. 3 x per week during 2 weeks before infection"}, "[11]": {"conditions": "therapy during infection: 0,5 mg/kg s.c. daily over 5 days from day of infection"}, "[12]": {"conditions": "HIV-infected patients (Tab. 6.1.)"}}, "data": [{"substance": "(N^α-Acetyl-arginyl)(N^ε-acetyl-lysyl)glutamylvalyltyrosin [DAc-SP5]", "values": [{"measurement": "DR^+-Monocyten (Gpt/l)", "setting": "[1]; 2 weeks of therapy", "value": "0,08 Gpt/l"}, {"measurement": "CD 4 (Gpt/l)", "setting": "[1]; 2 weeks of therapy", "value": "0,29 Gpt/l"}, {"measurement": "CD 3 (Gpt/l)", "setting": "[1]; 2 weeks of therapy", "value": "0,39 Gpt/l"}, {"measurement": "Lymphocyten (Gpt/l)", "setting": "[1]; 2 weeks of therapy", "value": "0,84 Gpt/l"}, {"measurement": "CD 4/ CD 8", "setting": "[1]; 2 weeks of therapy", "value": "2,3"}, {"measurement": "DR^+-Monocyten (%)", "setting": "[1]; 2 weeks of therapy", "value": 22, "unit": "%"}, {"measurement": "DR^+-Monocyten (Gpt/l)", "setting": "[1]; 3 weeks of therapy", "value": "0,26 Gpt/l"}, {"measurement": "CD 4 (Gpt/l)", "setting": "[1]; 3 weeks of therapy", "value": "0,34 Gpt/l"}, {"measurement": "CD 3 (Gpt/l)", "setting": "[1]; 3 weeks of therapy", "value": "0,55 Gpt/l"}, {"measurement": "Lymphocyten (Gpt/l)", "setting": "[1]; 3 weeks of therapy", "value": "0,74 Gpt/l"}, {"measurement": "CD 4/ CD 8", "setting": "[1]; 3 weeks of therapy", "value": "2,2"}, {"measurement": "DR^+-Monocyten (%)", "setting": "[1]; 3 weeks of therapy", "value": 62, "unit": "%"}, {"measurement": "DR^+-Monocyten (Gpt/l)", "setting": "[1]; 4 weeks of therapy", "value": "0,60 Gpt/l"}, {"measurement": "CD 4 (Gpt/l)", "setting": "[1]; 4 weeks of therapy", "value": "0,38 Gpt/l"}, {"measurement": "CD 3 (Gpt/l)", "setting": "[1]; 4 weeks of therapy", "value": "0,67 Gpt/l"}, {"measurement": "Lymphocyten (Gpt/l)", "setting": "[1]; 4 weeks of therapy", "value": "0,83 Gpt/l"}, {"measurement": "CD 4/ CD 8", "setting": "[1]; 4 weeks of therapy", "value": "2,4"}, {"measurement": "DR^+-Monocyten (%)", "setting": "[1]; 4 weeks of therapy", "value": 72, "unit": "%"}, {"measurement": "Tiere mit Pankreatitis (in %, n = 10-15)", "setting": "Coxsackievirus B4; Infektionsdosis (TCID₅₀) 10³, therapy during infection: 0,5 mg/kg s.c. daily over 5 days from day of infection", "value": 0, "unit": "%"}, {"measurement": "Tiere mit Pankreatitis (in %, n = 10-15)", "setting": "Coxsackievirus B4; Infektionsdosis (TCID₅₀) 10⁴, therapy before infection: 0,5 mg/kg s.c. 3 x per week during 2 weeks before infection", "value": 80, "unit": "%"}, {"measurement": "Tiere mit Pankreatitis (in %, n = 10-15)", "setting": "Coxsackievirus B4; Infektionsdosis (TCID₅₀) 10⁴, therapy during infection: 0,5 mg/kg s.c. daily over 5 days from day of infection", "value": 0, "unit": "%"}, {"measurement": "Tiere mit Pankreatitis (in %, n = 10-15)", "setting": "Coxsackievirus B4; Infektionsdosis (TCID₅₀) 10⁵, therapy before infection: 0,5 mg/kg s.c. 3 x per week during 2 weeks before infection", "value": 100, "unit": "%"}, {"measurement": "Tiere mit Pankreatitis (in %, n = 10-15)", "setting": "Coxsackievirus B4; Infektionsdosis (TCID₅₀) 10⁵, therapy during infection: 0,5 mg/kg s.c. daily over 5 days from day of infection", "value": 60, "unit": "%"}, {"measurement": "Tiere mit Pankreatitis (in %, n = 10-15)", "setting": "Coxsackievirus B4; Infektionsdosis (TCID₅₀) 10⁶, therapy before infection: 0,5 mg/kg s.c. 3 x per week during 2 weeks before infection", "value": 100, "unit": "%"}, {"measurement": "Tiere mit Pankreatitis (in %, n = 10-15)", "setting": "Coxsackievirus B4; Infektionsdosis (TCID₅₀) 10⁶, therapy during infection: 0,5 mg/kg s.c. daily over 5 days from day of infection", "value": 100, "unit": "%"}, {"measurement": "% phagocytierende Peritonealzellen", "setting": "männlichen Balb/c-Mäusen; [8]", "value": "47,5±1,7%"}, {"measurement": "Milzmasse (mg)", "setting": "männlichen Balb/c-Mäusen; [8]", "value": "82,0±5,6 mg"}, {"measurement": "Phagocytoseindex", "setting": "männlichen Balb/c-Mäusen; [8]", "value": "4,5±0,1"}, {"measurement": "Plaque-bildende Zellen der Milz pro 10⁶ Zellen (Jerne-Plaquetest)", "setting": "männlichen Balb/c-Mäusen; [8]", "value": "214,3±5,9 pro 10⁶ Zellen"}, {"measurement": "Thymusmasse (mg)", "setting": "männlichen Balb/c-Mäusen; [8]", "value": "29,0±2,2 mg"}, {"measurement": "% phagocytierende Peritonealzellen", "setting": "männlichen Balb/c-Mäusen; [9]", "value": "75,0±2,6%"}, {"measurement": "Milzmasse (mg)", "setting": "männlichen Balb/c-Mäusen; [9]", "value": "95,0±7,1 mg"}, {"measurement": "Phagocytoseindex", "setting": "männlichen Balb/c-Mäusen; [9]", "value": "4,9±0,15"}, {"measurement": "Plaque-bildende Zellen der Milz pro 10⁶ Zellen (Jerne-Plaquetest)", "setting": "männlichen Balb/c-Mäusen; [9]", "value": "285,0±11,3 pro 10⁶ Zellen"}, {"measurement": "Thymusmasse (mg)", "setting": "männlichen Balb/c-Mäusen; [9]", "value": "40,0±3,0 mg"}, {"measurement": "Anzahl der Tiere mit histopathologischem Lungenbefund (%)", "setting": "[2]; [10]", "value": 100, "unit": "%"}, {"measurement": "Anzahl der Tiere mit histopathologischem Lungenbefund (%)", "setting": "[2]; [11]", "value": 0, "unit": "%"}, {"measurement": "Zell-\"Kolonien\" pro 10^5 Knochenmarkzellen, Prozentuale Angabe", "setting": "[3]; leukocytes of Kontroll-personen, Exp. A, 1 µg DAc-SP5 per 1 ml agar", "value": 99, "unit": "%"}, {"measurement": "Zell-\"Kolonien\" pro 10^5 Knochenmarkzellen, Prozentuale Angabe", "setting": "[3]; leukocytes of Kontroll-personen, Exp. A, 2 µg DAc-SP5 per 1 ml agar", "value": 98, "unit": "%"}, {"measurement": "Zell-\"Kolonien\" pro 10^5 Knochenmarkzellen, Prozentuale Angabe", "setting": "[3]; leukocytes of Kontroll-personen, Exp. A, 10 µg DAc-SP5 per 1 ml agar", "value": 114, "unit": "%"}, {"measurement": "Zell-\"Kolonien\" pro 10^5 Knochenmarkzellen, Prozentuale Angabe", "setting": "[3]; leukocytes of Kontroll-personen, Exp. A, 20 µg DAc-SP5 per 1 ml agar", "value": 125, "unit": "%"}, {"measurement": "Zell-\"Kolonien\" pro 10^5 Knochenmarkzellen, Prozentuale Angabe", "setting": "[3]; leukocytes of Kontroll-personen, Exp. B, 1 µg DAc-SP5 per 1 ml agar", "value": 135, "unit": "%"}, {"measurement": "Zell-\"Kolonien\" pro 10^5 Knochenmarkzellen, Prozentuale Angabe", "setting": "[3]; leukocytes of Kontroll-personen, Exp. B, 2 µg DAc-SP5 per 1 ml agar", "value": 136, "unit": "%"}, {"measurement": "Zell-\"Kolonien\" pro 10^5 Knochenmarkzellen, Prozentuale Angabe", "setting": "[3]; leukocytes of Kontroll-personen, Exp. B, 10 µg DAc-SP5 per 1 ml agar", "value": 147, "unit": "%"}, {"measurement": "Zell-\"Kolonien\" pro 10^5 Knochenmarkzellen, Prozentuale Angabe", "setting": "[3]; leukocytes of Kontroll-personen, Exp. B, 20 µg DAc-SP5 per 1 ml agar", "value": 137, "unit": "%"}, {"measurement": "Zell-\"Kolonien\" pro 10^5 Knochenmarkzellen, Prozentuale Angabe", "setting": "[3]; leukocytes of Patienten (Systemischer Lupus Erythe-matodes), Exp. A, 1 µg DAc-SP5 per 1 ml agar", "value": 180, "unit": "%"}, {"measurement": "Zell-\"Kolonien\" pro 10^5 Knochenmarkzellen, Prozentuale Angabe", "setting": "[3]; leukocytes of Patienten (Systemischer Lupus Erythe-matodes), Exp. A, 2 µg DAc-SP5 per 1 ml agar", "value": 316, "unit": "%"}, {"measurement": "Zell-\"Kolonien\" pro 10^5 Knochenmarkzellen, Prozentuale Angabe", "setting": "[3]; leukocytes of Patienten (Systemischer Lupus Erythe-matodes), Exp. A, 10 µg DAc-SP5 per 1 ml agar", "value": 270, "unit": "%"}, {"measurement": "Zell-\"Kolonien\" pro 10^5 Knochenmarkzellen, Prozentuale Angabe", "setting": "[3]; leukocytes of Patienten (Systemischer Lupus Erythe-matodes), Exp. A, 20 µg DAc-SP5 per 1 ml agar", "value": 256, "unit": "%"}, {"measurement": "Zell-\"Kolonien\" pro 10^5 Knochenmarkzellen, Prozentuale Angabe", "setting": "[3]; leukocytes of Patienten (Systemischer Lupus Erythe-matodes), Exp. B, 2 µg DAc-SP5 per 1 ml agar", "value": 873, "unit": "%"}, {"measurement": "Zell-\"Kolonien\" pro 10^5 Knochenmarkzellen, Prozentuale Angabe", "setting": "[3]; leukocytes of Patienten (Systemischer Lupus Erythe-matodes), Exp. B, 10 µg DAc-SP5 per 1 ml agar", "value": 642, "unit": "%"}, {"measurement": "Zell-\"Kolonien\" pro 10^5 Knochenmarkzellen, Prozentuale Angabe", "setting": "[3]; leukocytes of Patienten (Systemischer Lupus Erythe-matodes), Exp. B, 20 µg DAc-SP5 per 1 ml agar", "value": 438, "unit": "%"}, {"measurement": "Suppression der Antigen-spezifischen IgM-Antwort nach Cyclophosphamid", "setting": "NMRI-Mäuse [4]; Cyclophosphamid 7,2 mg/Tier i. p. once, DAc-SP5 0,5 mg/kg s. c. on the 4 following days", "value": "teilweise rekonstituiert"}, {"measurement": "Reduktion der Antigen-spezifischen IgM-Antwort durch Dexamethason", "setting": "NMRI-Mäuse [4]; Dexamethason 0,2 or 0,08 mg/Tier i. p., DAc-SP5 0,5 mg/kg s. c. on the two following days", "value": "vollständig rekonstituiert"}, {"measurement": "CD4⁺/CD8⁺-Verhältnisses", "setting": "[5]; [12]", "value": "Verbesserung"}, {"measurement": "Gesamtlymphocytenzahl", "setting": "[5]; [12]", "value": "Anhebung der Gesamtlymphocytenzahl in den Kontrollbereich"}, {"measurement": "Nebenwirkungen", "setting": "[5]; HIV-infected patients, after 16 weeks of therapy", "value": "keine Nebenwirkungen"}, {"measurement": "Stärke und Kinetik der IgM-Antwort von Mäusen gegen Schafserythrocyten", "setting": "NMRI-Mäuse [6]", "value": "keinen siknifikanten Einfluß"}, {"measurement": "Anzahl der Tiere mit histopathologischem Lungenbefund (%)", "setting": "[7]; [10]", "value": 100, "unit": "%"}, {"measurement": "Anzahl der Tiere mit histopathologischem Lungenbefund (%)", "setting": "[7]; [11]", "value": 10, "unit": "%"}]}, {"substance": "³H-Splenopentin [³H-SP5]", "values": [{"measurement": "Radioligand-Dissoziationskonstante (KD, M)", "setting": "Milzzellen/Ratte", "value": "keine verdrängbare Bindung"}]}]}
